Measured values reported in US7157487B2, “Vla-4 inhibitors” (Daiichi Pharmaceutical Co., Ltd., priority 2000, dated 2007).

Molecular target: T1, integrins haα4 and β1 (VLA-4) expressed on CHO cells (Homo sapiens, UniProt P05556+P13612)
T1 construct: expressed in transfected cells; host or cells: CHO cells
Experiment: In vitro Evaluation Test (1): binding of Eu3+-hVCAM-1 D1D7-IgG to CHO cells expressing integrins α4 and β1
Settings: inhibition of Eu3+-hVCAM-1 D1D7-IgG binding to CHO cells expressing α4β1; Ki calculated from IC50
Description: CHO cells forcedly expressed by the transduction of integrins haα4 and β1 were seeded in a Coster 3599 plate (3×10^4 cells/100 μl/well) and they were cultured for 2 days. After the medium was washed with buffer A* twice, 50 μl/well of Eu^3+-hVCAM-1 D1D7-IgG diluted to […] with an assay buffer ** was added. To the resulting well was added 50 μl/well of a test compound diluted with 2% DMS0-assay buffer (in the presence or absence of 6% human serum albumin) (to a well subjected to Scatchard analysis was added a solution diluted in another manner). After stirring for 5 minutes on a plate mixer, the plate was allowed to stand at room temperature for 1 hour. Then, the plate was washed four times with the buffer A and added with 100 μl/well of an enhancement reagent (DELFIA). The plate was shaken for 5 minutes on a plate mixer, followed by measurement of fluorescence intensity by a time-resolved fluorometer (DELFIA Wallac). From the binding ratio available by the following calculation formula: ((FT−FNS)−(FI−FNS))/(FT−FNS)×100, the IC50 (concentration inhibiting 50% of binding of CHO cells with hVCAM-1 D1D7-IgG) of the test compound was determined. In the above formula, FT means the fluorescence intensity of the well free of the test compound, FNS means the fluorescence intensity of the well free of the test compound and anti-hα4 antibody (SG/73), and FI means the fluorescence intensity of the well containing the test compound. The Kd indicating the binding strength and Bmax (maximum binding) were estimated within a range of 0.06 to 20 nM in accordance with the Scatchard analysis method.
The value Ki was calculated based on:
[formula] ((L) means a ligand concentration). (* buffer A: 25 mM HEPES (pH 7.5), 150 mM NaCl, 1 mM Ca^2+, 1 MM Mg^2+, 4 mM Mn^2+; ** assay buffer: 25 mM HEPES (pH 7.5), 150 mM NaCl, 1 mM Ca^2+, 1 mM Mg^2+, 4 mM Mn^2+, 0.1% BSA, 20 μM DTPA, with/without 6% ALBUMIN, HUMAN SERUM (C/N A-1653, SIGMA)) In vitro Evaluation Test (2)

T1 sequence (P13612 34-1032): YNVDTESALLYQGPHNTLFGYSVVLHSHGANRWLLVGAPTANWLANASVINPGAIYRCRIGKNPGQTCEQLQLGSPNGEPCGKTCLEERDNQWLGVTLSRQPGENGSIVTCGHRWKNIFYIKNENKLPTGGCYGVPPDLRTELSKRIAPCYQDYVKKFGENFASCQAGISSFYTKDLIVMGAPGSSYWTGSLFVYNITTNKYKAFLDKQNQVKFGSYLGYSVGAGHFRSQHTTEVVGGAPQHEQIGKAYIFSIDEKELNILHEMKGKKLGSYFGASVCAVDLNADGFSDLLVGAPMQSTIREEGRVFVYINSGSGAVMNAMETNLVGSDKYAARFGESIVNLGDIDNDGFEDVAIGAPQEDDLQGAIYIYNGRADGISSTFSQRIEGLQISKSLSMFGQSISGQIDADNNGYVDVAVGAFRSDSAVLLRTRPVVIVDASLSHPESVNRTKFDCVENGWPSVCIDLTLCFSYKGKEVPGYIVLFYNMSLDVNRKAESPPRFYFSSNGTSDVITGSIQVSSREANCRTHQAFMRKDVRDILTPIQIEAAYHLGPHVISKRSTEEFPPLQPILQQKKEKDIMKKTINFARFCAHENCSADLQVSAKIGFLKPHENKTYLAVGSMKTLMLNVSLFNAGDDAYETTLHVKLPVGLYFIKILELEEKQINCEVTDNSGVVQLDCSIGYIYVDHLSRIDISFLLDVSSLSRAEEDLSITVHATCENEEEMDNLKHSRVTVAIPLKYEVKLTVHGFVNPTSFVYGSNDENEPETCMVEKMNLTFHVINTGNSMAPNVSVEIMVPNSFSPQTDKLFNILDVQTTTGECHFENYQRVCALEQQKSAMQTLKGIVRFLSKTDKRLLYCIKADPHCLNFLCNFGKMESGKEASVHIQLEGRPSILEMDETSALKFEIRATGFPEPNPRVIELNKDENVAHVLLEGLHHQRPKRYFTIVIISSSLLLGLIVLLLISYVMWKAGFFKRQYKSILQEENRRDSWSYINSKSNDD
T1 sequence (P05556 21-798): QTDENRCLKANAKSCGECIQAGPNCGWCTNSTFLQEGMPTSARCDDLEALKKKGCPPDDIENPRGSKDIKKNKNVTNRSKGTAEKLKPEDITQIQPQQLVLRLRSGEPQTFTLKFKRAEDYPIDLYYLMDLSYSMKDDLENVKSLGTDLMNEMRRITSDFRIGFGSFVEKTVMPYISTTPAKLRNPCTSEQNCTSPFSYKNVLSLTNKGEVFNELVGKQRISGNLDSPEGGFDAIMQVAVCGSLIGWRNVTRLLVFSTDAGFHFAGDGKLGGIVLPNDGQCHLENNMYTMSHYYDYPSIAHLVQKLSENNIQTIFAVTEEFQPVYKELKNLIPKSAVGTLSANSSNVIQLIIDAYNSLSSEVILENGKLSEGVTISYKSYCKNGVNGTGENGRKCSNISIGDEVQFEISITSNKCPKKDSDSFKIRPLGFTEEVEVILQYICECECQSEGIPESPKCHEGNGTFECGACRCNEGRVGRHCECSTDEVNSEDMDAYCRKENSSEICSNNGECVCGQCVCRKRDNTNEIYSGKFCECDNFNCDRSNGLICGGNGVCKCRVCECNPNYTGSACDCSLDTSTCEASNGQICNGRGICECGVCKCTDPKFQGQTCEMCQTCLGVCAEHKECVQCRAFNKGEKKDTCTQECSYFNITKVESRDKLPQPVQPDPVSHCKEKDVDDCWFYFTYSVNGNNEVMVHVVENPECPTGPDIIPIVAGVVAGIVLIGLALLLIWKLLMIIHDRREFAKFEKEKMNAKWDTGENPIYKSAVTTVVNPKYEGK

Compound | Ki
Cc1ccccc1Nc1nc2ccc(CC(=O)N3C[C@@H](F)C[C@H]3COC3CCC(C(=O)O)CC3)cc2o1 (single isomer, unassigned) [21 (Isomer G)] | 382 nM
Cn1nc(C(=O)Nc2cc(F)c(CC(=O)N3C[C@@H](S(C)(=O)=O)C[C@H]3CO[C@H]3CC[C@H](C(=O)O)CC3)cc2Cl)c2ccccc21 [Example 129, trans-4-(1-((5-Chloro-2-fluoro-4-((1-methyl-3-indazolylcarbonyl)amino)phenyl)acetyl)-(4S)-methanesulfonyl-(2S)-pyrrolidinylmethoxy)cyclohexanecarboxylic acid] | 1.5 nM
Cc1cccc2oc(Nc3ccc(CC(=O)N4C[C@@H](F)C[C@H]4CO[C@H]4CC[C@H](C(=O)O)CC4)cc3Cl)nc12 [Example 52, trans-4-(1-(3-Chloro-4-(2-(4-methylbenzoxazolyl))aminophenylacetyl)-(4S)-fluoro-(2S)-pyrrolidinylmethoxy)cyclohexanecarboxylic acid] | 10 nM
O=C(Cc1ccc(Nc2nc3cc(F)ccc3o2)c(Cl)c1)N1C[C@@H](F)C[C@H]1CO[C@H]1CC[C@H](C(=O)O)CC1 [Example 54, trans-4-(1-(3-Chloro-4-(2-(5-fluorobenzoxazolyl))aminophenylacetyl)-(4S)-fluoro-(2S)-pyrrolidinylmethoxy)cyclohexanecarboxylic acid] | 5.6 nM
Cc1ccccc1Nc1nc2ccc(CC(=O)N3C[C@@H](F)C[C@H]3CNc3ccc(C(=O)O)cc3)cc2o1 [Example 33, 4-(1-(2-(2-Methylphenylamino)-6-benzoxazolylacetyl)-(4S)-fluoro-(2S)-pyrrolidinylmethylamino)benzoic acid] | 31 nM
COC[C@H]1C[C@@H](CO[C@H]2CC[C@H](C(=O)O)CC2)N(C(=O)Cc2ccc3nc(Nc4cc(F)ccc4C)oc3c2F)C1 [Example 140, trans-4-(1-(7-Fluoro-2-(5-fluoro-2-methylphenylamino)-6-benzoxazolylacetyl)-(4S)-methoxymethyl-(2S)-pyrrolidinylmethoxy)cyclohexanecarboxylic acid] | 1.8 nM
Cc1cc(F)ccc1Nc1nc2ccc(CC(=O)N3C[C@@H](F)C[C@H]3CO[C@H]3CC[C@H](C(=O)O)CC3)c(F)c2o1 [Example 45, trans-4-(1-((2-(4-Fluoro-2-methylphenylamino)-7-fluoro-6-benzoxazolyl)acetyl)-(4S)-fluoro-(2S)-pyrrolidinylmethoxy)cyclohexanecarboxylic acid] | 8.8 nM
Cn1cc(C(=O)Nc2ccc(CC(=O)N3C[C@@H](F)C[C@H]3COc3ccc(C(=O)O)cc3)cc2Cl)c2ccccc21 [Example 147, 4-(1-((3-Chloro-4-((1-methyl-3-indolylcarbonyl)amino)phenyl)acetyl)-(4S)-fluoro-(2S)-pyrrolidinylmethoxy)benzoic acid] | 40 nM
Cc1ccc(F)cc1Nc1nc2c(F)cc(CC(=O)N3C[C@@H](F)C[C@H]3CO[C@H]3CC[C@H](C(=O)O)CC3)cc2o1 [Example 47, trans-4-(1-((2-(5-Fluoro-2-methylphenylamino)-4-fluoro-6-benzoxazolyl)acetyl)-(4S)-fluoro-(2S)-pyrrolidinylmethoxy)cyclohexanecarboxylic acid] | 5.8 nM
O=C(Nc1ccc(CC(=O)N2C[C@@H](F)C[C@H]2CO[C@H]2CC[C@H](C(=O)O)CC2)cc1Br)c1c[nH]c2ccccc12 [Example 64, trans-4-(1-((3-Bromo-4-((3-indolylcarbonyl)amino)phenyl)acetyl)-(4S)-fluoro-(2S)-pyrrolidinylmethoxy)cyclohexanecarboxylic acid] | 0.31 nM
Cc1ccccc1Nc1nc2ccc(CC(=O)N3C[C@@H](F)C[C@H]3COC3CCC(C(=O)O)CC3)c(F)c2o1 (single isomer, unassigned) [26 (Isomer A)] | 2 nM
Cc1ccc(F)cc1Nc1nc2ccc(CC(=O)N3C[C@@H](F)C[C@H]3COc3ccc(C(=O)O)cc3)cc2o1 [Example 146, 4-(1-((2-(5-Fluoro-2-methylphenylamino)-6-benzoxazolyl)acetyl)-(4S)-fluoro-(2S)-pyrrolidinylmethoxy)benzoic acid] | 21 nM
Cc1ccc(F)cc1Nc1nc2ccc(CC(=O)N3C[C@@H](C)C[C@H]3CO[C@H]3CC[C@H](C(=O)O)CC3)c(F)c2o1 [Example 134] | 3.1 nM
Cn1cc(-c2nc3ccc(CC(=O)N4C[C@@H](F)C[C@H]4CO[C@H]4CC[C@H](C(=O)O)CC4)cc3o2)c2cc(Cl)ccc21 [Example 96, trans-4-(1-((2-(5-Chloro-1-methyl-3-indolyl)-6-benzoxazolyl)acetyl)-(4S)-fluoro-(2S)-pyrrolidinylmethoxy)cyclohexanecarboxylic acid] | 20 nM
Cn1cc(C(=O)Nc2cc(F)c(CC(=O)N3C[C@@H](F)C[C@H]3C(=O)N[C@H]3CC[C@H](C(=O)O)CC3)cc2Cl)c2ccccc21 [Example 111, trans-4-((1-(5-Chloro-2-fluoro-4-((1-methyl-3-indolylcarbonyl)amino)phenylacetyl)-(4S)-fluoro-(2S)-pyrrolidinyl)carbonylamino)cyclohexanecarboxylic acid] | 2.6 nM
CN(C)C(=O)CO[C@H]1C[C@@H](CO[C@H]2CC[C@H](C(=O)O)CC2)N(C(=O)Cc2cc(Cl)c(NC(=O)c3cn(C)c4ccccc34)cc2F)C1 [Example 120, trans-4-(1-((5-Chloro-2-fluoro-4-(1-methyl-3-indolylcarbonylamino)phenyl)acetyl)-(4S)-dimethylcarbamoylmethoxy-(2S)-pyrrolidinylmethoxy)-1-cyclohexanecarboxylic acid] | 1.9 nM

Continued by falling Ki, values first:

Ki | Compound
37 nM | Cc1c(F)cccc1Nc1nc2ccc(CC(=O)N3C[C@@H](F)C[C@H]3CO[C@H]3CC[C@H](C(=O)O)CC3)c(F)c2o1 [Example 46, trans-4-(1-((2-(3-fluoro-2-methylphenylamino)-7-fluoro-6-benzoxazolyl)acetyl)-(4S)-fluoro-(2S)-pyrrolidinylmethoxy)cyclohexanecarboxylic acid]
22 nM | C[C@H]1C[C@@H](CO[C@H]2CC[C@H](C(=O)O)CC2)N(C(=O)Cc2cc(Cl)c(NC(=O)c3cn(C)c4ccccc34)cc2F)C1 [Example 133, trans-4-(1-(5-Chloro-2-fluoro-4-((1-methyl-1H-3-indolylcarbonyl)amino)phenylacetyl)-(4S)-methyl-(2S)-pyrrolidinylmethoxy)cyclohexanecarboxylic acid]
21 nM | Cn1cc(-c2nc3ccc(CC(=O)N4C[C@@H](F)C[C@H]4CN[C@H]4CC[C@H](C(=O)O)CC4)c(F)c3o2)c2ccccc21 [Example 108, trans-4-(N-(1-((7-Fluoro-2-(1-methyl-3-indolyl)-6-benzoxazolyl)acetyl)-(4S)-fluoro-(2S)-pyrrolidinylmethyl)amino)cyclohexanecarboxylic acid]
20 nM | O=C(Cc1ccc2nc(N3CCc4ccccc43)oc2c1)N1C[C@@H](F)C[C@H]1CO[C@H]1CC[C@H](C(=O)O)CC1 [Example 104]
17 nM | Cn1cc(-c2nc3ccc(CC(=O)N4C[C@@H](F)C[C@H]4CO[C@H]4CC[C@H](C(=O)O)CC4)cc3o2)c2ccc(F)cc21 [Example 99, trans-4-(1-((2-(6-Fluoro-1-methyl-3-indolyl)-6-benzoxazolyl)acetyl)-(4S)-fluoro-(2S)-pyrrolidinylmethoxy)cyclohexanecarboxylic acid]
11 nM | Cn1cc(C(=O)Nc2cc(F)c(CC(=O)N3C[C@@H](F)C[C@H]3CN[C@H]3CC[C@H](C(=O)O)CC3)cc2Cl)c2ccccc21 [Example 107, trans-4-(N-(1-((5-Chloro-2-fluoro-4-((1-methyl-3-indolylcarbonyl)amino)phenyl)acetyl)-(4S)-fluoro-(2S)-pyrrolidinylmethyl)amino)cyclohexanecarboxylic acid]
5.6 nM | Cc1ccc(F)cc1Nc1nc2ccc(CC(=O)N3[C@H](CO[C@H]4CC[C@H](C(=O)O)CC4)CC[C@@H]3C)c(F)c2o1 [Example 137, trans-4-(1-((2-(5-Fluoro-2-methylphenylamino)-7-fluoro-6-benzoxazolyl)acetyl)-(5S)-methyl-(2S)-pyrrolidinylmethoxy)cyclohexanecarboxylic acid]
0.87 nM | COC[C@@H]1CC[C@@H](CO[C@H]2CC[C@H](C(=O)O)CC2)N1C(=O)Cc1ccc2nc(Nc3cc(F)ccc3C)oc2c1F [Example 167, trans-4-(1-((2-(5-Fluoro-2-methylphenylamino)-7-fluoro-6-benzoxazolyl)acetyl)-(5S)-methoxymethyl-(2S)-pyrrolidinylmethoxy)cyclohexanecarboxylic acid]
